Test results reported in patent publication US20250152387A1, “COBALT-CHROMIUM ALLOY STENT AND DRUG ELUTING STENT” (AmsinoMed Medical Co., Ltd, priority 2022, published 2025).

Tests used:
[1] = tested on: vascular endothelial cells (HUVECs); experiment: CCK-8 cell viability assay on vascular endothelial cells; type: cell-based; settings: 24 h and 48 h
Experimental: The range of drug concentrations at which ATO and TAC were friendly to vascular endothelial cell viability was determined at the cellular level.
The changes in the cell viability of vascular endothelial cells (HUVECs) under the action of ATO, TAC and rapamycin (RAP) at different concentrations for 24 h and 48 h were studied by CCK-8 cell viability assay, respectively.

[2] = Drug release from coated stents soaked in PBS solution in a shaker; type: physicochemical; settings: at 1 d; release curve obtained by adjustment
From the text: The process of testing the release properties of tacrolimus of the present invention comprises: soaking drug stents in a PBS solution, placing the stents in a shaker (shaking speed of 80 r/min), and taking out the stents at the corresponding time points (1 d, 7 d, 14 d, 21 d, and 28 d) (at least 3 stents for each time point), and testing the concentration of tacrolimus. The content of tacrolimus can be tested using the detection method in “Determination of Tacrolimus Tablets by HPLC” (Lv, Yongchao, Song, Yucai; Journal of Pharmaceutical Research 2013 Vol. 32, No. 4, page 1).
For the drug release properties of the present invention, the release process comprises: soaking drug stents in a PBS solution, placing the stents in a shaker (shaking speed of 100 r/min), and taking out 5 ml of the solution at the corresponding time points (1 d, 7 d, 14 d, 21 d, and 28 d) (at least 3 stents for each time point) for testing. The release of the drug arsenic trioxide is detected using the method disclosed in “Preparation and the Release Characteristic in vitro of Arsenic Trioxide Albumin Nanospheres” (Zhou, Jie, Zeng, Fuqing, Gao, Xiang, Xie, Shusheng, Wei, Shuli, Chinese Journal of New Drugs, pages 54-57).

[3] = tested on: vascular smooth muscle cells (HASMCs); experiment: CCK-8 cell viability assay on vascular smooth muscle cells; type: cell-based; settings: different concentrations, 24 h and 48 h
Experimental: The range of drug concentrations at which ATO and TAC were friendly to vascular smooth muscle cell viability was determined at the cellular level.
The changes in the cell viability of vascular smooth muscle cells (HASMCs) under the action of ATO, TAC and rapamycin (RAP) at different concentrations for 24 h and 48 h were studied by CCK-8 cell viability assay, respectively.

[4] = tested on: IL-6, IL-10 and TNF-α gene expression in HUVECs; experiment: PCR of inflammatory factor gene expression in LPS-induced HUVECs; type: cell-based; settings: 10 nM; HUVECs induced with LPS 1 μg/ml for 6 h
Experimental: The range of effective concentrations at which TAC inhibited the inflammatory response of vascular endothelial cells was verified at the cellular level.
After induction of HUVECs with LPS at a concentration of 1 μg/ml for 6 h, the inhibitory effects of TAC at different concentrations on the inflammatory response of HUVECs were detected by PCR.

SMILES	concentration with no significant effect on cell viability [1] [nM]	tacrolimus released [2] [%]	effect on the viability of vascular smooth muscle cells [3]	gene expression levels of cellular inflammatory factors IL-6, IL-10 and TNF-α [4]
CO[C@H]1C[C@@H]2CC[C@@H](C)[C@@](O)(O2)C(=O)C(=O)N2CCCC[C@H]2C(=O)O[C@H]([C@H](C)C[C@@H]2CC[C@@H](O)[C@H](OC)C2)CC(=O)[C@H](C)/C=C(\C)[C@@H](O)[C@@H](OC)C(=O)[C@H](C)C[C@H](C)/C=C/C=C/C=C/1C [RAP, rapamycin]	≤ 100	–	–	–
C=CC[C@@H]1/C=C(\C)C[C@H](C)C[C@H](OC)[C@H]2O[C@@](O)(C(=O)C(=O)N3CCCC[C@H]3C(=O)O[C@H](/C(C)=C/[C@@H]3CC[C@@H](O)[C@H](OC)C3)[C@H](C)[C@@H](O)CC1=O)[C@H](C)C[C@@H]2OC [TAC, tacrolimus]	≤ 50	≥ 40	no significant inhibitory effect	effectively reduce
